# Laboratory results reported in publication PMC5877436, “A first-in-human phase I study to determine the maximum tolerated dose of the oral Src/ABL inhibitor AZD0424” (British Journal of Cancer, 2018).
# “Also recorded” adds a separate entry of the source. Read-outs that look alike come from different tables or passages of the source.
# Key:
# [1] = type: in vivo
# [2] = tested on: Src; assay: Urinary NTX and serum CTX levels as markers of Src inhibition; type: in vivo, human
# Protocol: Src inhibition is known to reduce bone resorption, resulting in a decrease in urinary N-terminal cross-linking telopeptides of type I collagen (NTX) and serum C-terminal cross-linking telopeptides of type I collagen (CTX) ([Hannon et al, 2012]). Measurements of urinary NTX and serum CTX levels were performed before the first administration of AZD0424 and then weekly, at the same time of day, for up to 6 weeks following first administration as markers of Src inhibition. Samples were analysed at the Mellanby Centre for Bone Research in Sheffield using the Cobas e411 automated immunoassay (Roche Diagnostics, Mannheim, Germany) for serum CTX (ng ml^−1), and the Ortho Clinical Diagnostics (High Wycombe, UK) automated immunoassay for urine NTX. Urinary NTX measurements were reported as a ratio to urinary creatinine (nmol bone collagen equivalent (BCE)/mmol creatinine). Tumour biopsies for measurement of tumour biomarkers (p-Src, Ki67, p-PAX, and p-FAK) by immunohistochemical staining were optional.
# [3] = tested on: advanced solid tumours; assay: Disease response by RECIST 1.1; type: in vivo, human
# Protocol: All patients receiving at least one dose of AZD0424 were evaluable for safety and efficacy analyses. Safety and tolerability of AZD0424 were assessed according to NCI CTCAE version 4.02. Patients who were withdrawn from treatment, or received less than 75% of the planned doses of AZD0424 during the first cycle, for reasons other than toxicity were not evaluable for dose review decisions and could be replaced. Disease response was assessed according to RECIST 1.1. For stable disease (SD), follow-up measurements had to meet the SD criteria at least once at least 6 weeks after the first dose of AZD0424.
# [4] = tested on: Src; set-up: method as in Cancer Research UK Centre for Drug Development, 2015; conditions: ref Cancer Research UK Centre for Drug Development, 2015; cited from earlier work
# [5] = human, in vivo
# Protocol: (§1) Treatment cycles consisted of 28 days of continuous AZD0424 administration, and treatment was to be continued until disease progression, patient withdrawal or unacceptable toxicity.
# (§2) All patients receiving at least one dose of AZD0424 were evaluable for safety and efficacy analyses. Safety and tolerability of AZD0424 were assessed according to NCI CTCAE version 4.02.
# [6] = tested on: ABL1; set-up: method as in Cancer Research UK Centre for Drug Development, 2015; conditions: ref Cancer Research UK Centre for Drug Development, 2015; cited from earlier work
# [7] = tested on: Yes; set-up: method as in Cancer Research UK Centre for Drug Development, 2015; conditions: ref Cancer Research UK Centre for Drug Development, 2015; cited from earlier work
# [8] = tested on: Lck; set-up: method as in Cancer Research UK Centre for Drug Development, 2015; conditions: ref Cancer Research UK Centre for Drug Development, 2015; cited from earlier work
# [9] = tested on: C-terminal Src tyrosine kinase (CSK); conditions: cited from earlier work
# [10] = tested on: mouse fibroblasts engineered to over-express activated Src kinase (c-SRC 3T3); conditions: in vitro, pre-clinical; cited from earlier work
# [11] = tested on: human umbilical vein endothelial cell cultures; conditions: in vitro, growth factor stimulated, pre-clinical; cited from earlier work
# [12] = tested on: non-engineered human tumour cell lines; conditions: in vitro, diverse panel, pre-clinical; cited from earlier work
# [13] = tested on: human tumour cells; conditions: in vitro, pre-clinical; cited from earlier work
# [14] = tested on: paxillin; conditions: in vitro, pre-clinical; cited from earlier work
# [15] = tested on: human Calu-6 lung tumour xenografts; conditions: rats, pre-clinical; cited from earlier work
# [16] = tested on: c-Src 3T mouse xenografts; conditions: immunocompromised rats, subcutaneous, pre-clinical; cited from earlier work
# [17] = rat, pre-clinical; cited from earlier work
# [18] = dog, pre-clinical; cited from earlier work
# [19] = clinical; conditions: human, plasma, oral
# Protocol: (§3) Patients were fasted for 3 h prior to administration of AZD0424. Blood samples for analysis of plasma levels of AZD0424 were taken at the following time points: Cycle 1: Pre-dose and at 0.5, 1, 2, 4, 6 and 10 h post-dose on Day 1, then at 24 and 48 h and pre-dose on Days 8, 15 and 22; Cycle 2 (Day 29): Pre-dose and at 0.5, 1, 2, 4, 6, 10, 24 and 48 h. For patients receiving twice-daily AZD0424, the timing of samples was in relation to the morning dose of the drug. Plasma was isolated from centrifuged blood samples and stored at −80 °C prior to quantification of AZD0424 by a validated high performance liquid chromatography method with mass spectrometric detection. Plasma concentration/time data were analysed using non-compartmental methods.
# [20] = tested on: VEGFR-2; conditions: ref Cancer Research UK Centre for Drug Development, 2015; cited from earlier work
# [21] = Plasma pharmacokinetics in patients;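 further: patient plasma drug levels measured by validated HPLC with mass spectrometric detection after a 3 h fast, PK parameters from non-compartmental analysis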
# Protocol: as §3
# [22] = Phase Ia dose escalation: safety and tolerability (NCI CTCAE v4.02, DLT, MTD)
# Protocol: as §1, §2
# [23] = tested on: breast cancer cell; set-up: method as in Srinivasan and Plattner, 2006; conditions: ref Srinivasan and Plattner, 2006; cited from earlier work
# [24] = set-up: method as in Reddy et al, 2015; conditions: colorectal cancer patients; ref Reddy et al, 2015; cited from earlier work
# [25] = set-up: method as in Baselga et al, 2010; conditions: ref Baselga et al, 2010; cited from earlier work
structure (smiles),measurement,setting,value
"CC(=O)N1CCN(CCOc2cc(OC(C)C)c3c(Nc4c(Cl)cnc5c4OCO5)ncnc3c2)CC1 [AZD0424, 7-[2-(4-Acetylpiperazin-1-yl)ethoxy]-N-(6-chloro[1,3]dioxolo[4,5-b]pyridin-7-yl)-5-isopropoxyquinazolin-4-amine]",one tenth of the maximum tolerated dose in rat scaled to man,[1],17 mg
same,change in CTX or NTX level,"[2]; 5 mg, single patient",No significant post-administration changes
same,dose giving clear evidence of Src target inhibition / inhibition of bone turnover,[2]; CTX and NTX,≥ 20 mg per day
same,change in CTX and NTX,"[2]; all cohorts other than 5 mg, by week 2, maintained to 7 weeks",a fall relative to baseline values in both CTX and NTX
same,percentage reductions in CTX and NTX compared with 50 mg per day of saracatinib,"[2]; doses of more than 10 mg per day, saracatinib data ref Hannon et al, 2012",Greater percentage reductions
same,rate of PD,[3]; 22/41,53.7%
same,patients with SD lasting >12 weeks,[3]; all cohorts,five
same,patients with best response of PD,[3]; all cohorts,Twenty-two
same,patients with best response of stable disease lasting at least 6 weeks,"[3]; all cohorts, 7 of 41 patients",17.1%
same,complete response or partial response,"[3]; all cohorts, N=41",No responses were observed; also recorded: No patients
same,IC50,[4],~4 nM
same,"Alopecia, treatment-related AE, All grades patients",[5],17 (41) n (%)
same,"Alopecia, treatment-related AE, Grade 3–5 patients",[5],0 n (%)
same,"Anaemia, treatment-related AE, All grades patients",[5],7 (17) n (%)
same,"Anaemia, treatment-related AE, Grade 3–5 patients",[5],3 (7) n (%)
same,"Anorexia, treatment-related AE, All grades patients",[5],19 (46) n (%)
same,"Anorexia, treatment-related AE, Grade 3–5 patients",[5],1 (2) n (%)
same,"Aspartate aminotransferase increased, treatment-related AE, All grades patients",[5],5 (12) n (%)
same,"Aspartate aminotransferase increased, treatment-related AE, Grade 3–5 patients",[5],0 n (%)
same,Cmin at which Grade 2 or 3 hypophosphataemia appeared more frequent,[5],≥ 200 nM
same,"Constipation, treatment-related AE, All grades patients",[5],6 (15) n (%)
same,"Constipation, treatment-related AE, Grade 3–5 patients",[5],1 (2) n (%)
same,"Diarrhoea, treatment-related AE, All grades patients",[5],12 (29) n (%)
same,"Diarrhoea, treatment-related AE, Grade 3–5 patients",[5],2 (5) n (%)
same,"Dysgeusia, treatment-related AE, All grades patients",[5],14 (34) n (%)
same,"Dysgeusia, treatment-related AE, Grade 3–5 patients",[5],0 n (%)
same,"Fatigue, treatment-related AE, All grades patients",[5],21(51) n (%)
same,"Fatigue, treatment-related AE, Grade 3–5 patients",[5],5 (12) n (%)
same,"Headache, treatment-related AE, All grades patients",[5],5 (12) n (%)
same,"Headache, treatment-related AE, Grade 3–5 patients",[5],0 n (%)
same,"Hypophosphataemia, treatment-related AE, All grades patients",[5],16 (39) n (%)
same,"Hypophosphataemia, treatment-related AE, Grade 3–5 patients",[5],8 (20) n (%)
same,"Lymphocyte count decreased, treatment-related AE, All grades patients",[5],10 (24) n (%)
same,"Lymphocyte count decreased, treatment-related AE, Grade 3–5 patients",[5],5 (12) n (%)
same,"Maculopapular rash, treatment-related AE, All grades patients",[5],9 (22) n (%)
same,"Maculopapular rash, treatment-related AE, Grade 3–5 patients",[5],2 (5) n (%)
same,"Nausea, treatment-related AE, All grades patients",[5],27 (66) n (%)
same,"Nausea, treatment-related AE, Grade 3–5 patients",[5],2 (5) n (%)
same,"Pruritis, treatment-related AE, All grades patients",[5],7 (17) n (%)
same,"Pruritis, treatment-related AE, Grade 3–5 patients",[5],0 n (%)
same,"Vomiting, treatment-related AE, All grades patients",[5],13 (32) n (%)
same,"Vomiting, treatment-related AE, Grade 3–5 patients",[5],1 (2) n (%)
same,dose above which treatment-related AE episodes and Grade 3-5 AEs increased markedly,[5],above 60 mg per day
same,"nausea, fatigue, anorexia and alopecia, each: patients with treatment-related AE",[5],> 40%
same,patients with AE of Grade 3 hypophosphataemia related to the drug,[5],19.5%
same,"patients with at least one AE possibly, probably or highly probably related to AZD0424",[5],92.7%
same,patients with at least one AZD0424-related event Grade 3-5 in severity,[5],41.5%
same,patients with decline in lymphocyte count,[5],68.3%
same,patients with dose delays and/or alterations during the study,[5],63.4%
same,protocol-defined RP2D,[5],80 mg
same,IC50,[6],~4 nM
same,activity against Yes,[7],additional activity
same,activity against Lck,[8],additional activity
same,selectivity for Src-Abl1 kinases vs CSK,"[9]; ref Cancer Research UK Centre for Drug Development, 2015",> 448 fold
same,inhibition of proliferation,[10],potent inhibition of proliferation
same,inhibition of proliferation,[11],inhibited proliferation
same,inhibition of proliferation,[12],generally poor
same,inhibition of migration,[13],potent inhibition of migration
same,inhibition of phosphorylation of paxillin,[14],evidence of inhibition of phosphorylation
same,anti-tumour growth effect,[15],moderate anti-tumour growth effects
same,inhibition of tumour growth,[16],"profound, dose-dependent inhibition of tumour growth"
same,dose limiting toxicity,[17],gastrointestinal toxicity being dose limiting
same,hypotension and reflex tachycardia,[17],Hypotension and reflex tachycardia were also observed
same,dose limiting toxicity,[18],gastrointestinal toxicity being dose limiting
same,hypotension and reflex tachycardia,[18],Hypotension and reflex tachycardia were also observed
same,Tmax,[19],< 2 h
same,half-life,[19],8.4 ± 2.8 h
same,AUC(0-t),[19]; 5 mg,0.624 µM·h
same,Cmax,[19]; 5 mg,68.3 nM
same,half-life,[19]; 5 mg,6.7 h
same,AUC(0-t),[19]; 10 mg,1.57 µM·h
same,Cmax,[19]; 10 mg,210 nM
same,half-life,[19]; 10 mg,6.3 h
same,Cmax,[19]; 20 mg,590 ± 300 nM
same,half-life,[19]; 20 mg,6.8 ± 2.6 h
same,AUC(0-t),[19]; 40 mg,6.81 ± 3.46 µM·h
same,Cmax,[19]; 40 mg,715 ± 380 nM
same,half-life,[19]; 40 mg,10.5 ± 0.8 h
same,AUC(0-t),[19]; 60 mg,9.88 ± 1.77 µM·h
same,Cmax,[19]; 60 mg,1380 ± 215 nM
same,half-life,[19]; 60 mg,8.2 ± 3.3 h
same,AUC(0-t),[19]; 80 mg,14.1 ± 5.12 µM·h
same,Cmax,[19]; 80 mg,1670 ± 602 nM
same,half-life,[19]; 80 mg,9.4 ± 5 h
same,AUC(0-t),[19]; 120 mg,24.9 ± 12 µM·h
same,Cmax,[19]; 120 mg,2650 ± 923 nM
same,half-life,[19]; 120 mg,7.8 ± 3.1 h
same,AUC(0-t),[19]; 150 mg,25.6 ± 4.15 µM·h
same,Cmax,[19]; 150 mg,4110 ± 1540 nM
same,half-life,[19]; 150 mg,7.8 ± 2.1 h
same,selectivity for Src-Abl1 kinases vs VEGFR-2,[20],> 933 fold
same,Cmax and AUC(0-24 h) compared with saracatinib,"[21]; comparable doses, saracatinib data ref Baselga et al, 2010",much higher for AZD0424 than saracatinib
same,dose dependence of Cmax and AUC,[21]; o.d. dosing 5-150 mg,"increased linearly with dose; also recorded: Linear, dose-dependent increases; also recorded: dose-dependent, linear increases"
same,absorption and bioavailability,[21]; oral,rapid absorption and high bioavailability
same,deaths due to pneumonia considered possibly related to AZD0424,[22]; all cohorts,One
same,patients who died within 4 weeks of the last administration,[22]; all cohorts,Four
same,maximum tolerated dose (MTD),"[22]; o.d., continuous oral dosing, 28-day cycles",120 mg
"COc1cc(Nc2c(C#N)cnc3cc(OCCCN4CCN(C)CC4)c(OC)cc23)c(Cl)cc1Cl [bosutinib, reference compound]",selectivity for SFKs over CSK,"[9]; ref Davis et al, 2011",~30 fold
Cc1ccc(NC(=O)c2ccc(CN3CCN(C)CC3)cc2)cc1Nc1nccc(-c2cccnc2)n1 [imatinib],inhibition of cell motility,[23],markedly inhibits cell motility
CN1CCN(CCOc2cc(OC3CCOCC3)c3c(Nc4c(Cl)ccc5c4OCO5)ncnc3c2)CC1 [saracatinib],rate of Grade 3 hypophosphataemia,[24],50%
same,recommended phase II dose (RP2D),[25],175 mg
